Reference: US10092579B2, “Gold(I) complexes with anticancer properties and methods of use thereof” (KING FAHD UNIVERSITY OF PETROLEUM AND MINERALS, priority 2016, dated 2018)
Where two headings read alike, the source gives them in different places.

Experiments:
Format in all cases: cell-based, human
A549 cancer cell line = assay: MTT assay for anticancer activity, A549 cells; conditions: read-out: IC50 against A549
Description: (§1) A549, HeLa and HCT15 human cancer cells were seeded and maintained in triplicate at 4×10^3 cells/well in 100 μL DMEM (Dulbecco's Modified Eagle's Medium) containing 10% FBS (Fetal Bovine Serum) in 96-wells tissue culture plate and incubated for 72 h at 37° C. 5% CO2 in air and 90% relative humidity in CO2 incubator.
(§2) The resultant cultures were incubated for 24 h. The medium of wells was discarded. 100 μL DMEM containing MTT (3-(4,5-Dimethylthiazol-2-Yl)-2,5-Diphenyltetrazolium Bromide) (5 mg/mL) was added to the wells and incubated in CO2 incubator at 37° C. in dark for 4 h. After incubation, a purple colored formazan (artificial chromogenic dye, product of the reduction of water insoluble tetrazolium salts e.g., MMT by dehydrogenases and reductases) in the cells is produced and appeared as dark crystals in the bottom of the wells. The medium of culture was discarded from each well carefully to avoid disruption of monolayer. 100 μL of Dimethylsulphoxide (DMSO) was added in each well. The solution was thoroughly mixed in the wells to dissolve the formazan crystals which ultimately result into a purple solution. The absorbance of the 96-wells plate was taken at 570 nm with Lab systems Multiskan EX-Enzyme-linked immunosorbent assay (EX-ELISA) reader against a reagent blank. All data presented are mean±standard error of the mean (SEM).

HeLa cancer cell line = assay: MTT assay for anticancer activity, HeLa cells; conditions: read-out: IC50 against HeLa
Description: as §1, §2

HCT15 cancer cell line = assay: MTT assay for anticancer activity, HCT15 cells; conditions: read-out: IC50 against HCT15
Description: as §1, §2

[1] = A549 cells, MTT, 24 h incubation
[2] = HeLa cells, MTT, 24 h incubation
[3] = HCT15 cells, MTT, 24 h incubation

Row | Compound | IC50 (A549 cancer cell line; [1]) | IC50 (HeLa cancer cell line; [2]) | IC50 (HCT15 cancer cell line; [3]) | IC50 (A549 cancer cell line) | IC50 (HeLa cancer cell line) | IC50 (HCT15 cancer cell line)
1 | [Cl][Au].[Cl][Au].c1ccc(P(CP(c2ccccc2)c2ccccc2)c2ccccc2)cc1 [[(DPPM)(AuCl)2](A0), [μ-Bis(diphenylphosphino)methane]dichlorodigold(I)] | 137 µM | 108 µM | 148 µM |  |  | 
2 | N.N.[Cl][Pt][Cl] [cisplatin] | 41.6 µM | 19.4 µM | 29.5 µM |  |  | 
3 | tri-tert-butyl-phosphine gold(I) dibenzyldithiocarbamate [Complex (A1)] |  |  |  | 96.9 µM | 25.6 µM | 93.2 µM
